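Assay format: 96-well plates, 48-hour exposure. At the TGI there is no net growth.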
Experiments:
Experiment in all cases: growth of human tumour cells (NCI), 48 h
IGROV1 ovarian = system: IGROV1 ovarian
SN12C renal = system: SN12C renal
HCC-2998 colon = system: HCC-2998 colon
SW-620 colon = system: SW-620 colon
SF-539 CNS = system: SF-539 CNS
M14 melanoma = system: M14 melanoma
OVCAR-8 ovarian = system: OVCAR-8 ovarian
OVCAR-5 ovarian = system: OVCAR-5 ovarian
COLO 205 colon = system: COLO 205 colon
HS 578T breast = system: HS 578T breast
NCI-H226 lung = system: NCI-H226 lung
UO-31 renal = system: UO-31 renal
EKVX NSCLC = system: EKVX NSCLC
SK-MEL-5 melanoma = system: SK-MEL-5 melanoma
A498 renal = system: A498 renal
BT-549 breast = system: BT-549 breast
HT29 colon = system: HT29 colon
CAKI-1 renal = system: CAKI-1 renal
KM12 colon = system: KM12 colon
NCI-H522 lung = system: NCI-H522 lung

Structure (SMILES) | TGI (IGROV1 ovarian) | TGI (SN12C renal) | TGI (HCC-2998 colon) | TGI (SW-620 colon) | TGI (SF-539 CNS) | TGI (M14 melanoma) | TGI (OVCAR-8 ovarian) | TGI (OVCAR-5 ovarian) | TGI (COLO 205 colon) | TGI (HS 578T breast) | TGI (NCI-H226 lung) | TGI (UO-31 renal) | TGI (EKVX NSCLC) | TGI (SK-MEL-5 melanoma) | TGI (A498 renal) | TGI (BT-549 breast) | TGI (HT29 colon) | TGI (CAKI-1 renal) | TGI (KM12 colon) | TGI (NCI-H522 lung)
CC(=O)N1C(=O)c2cc3ccccc3cc21 | > 100 µM | > 100 µM | > 100 µM | > 100 µM | > 100 µM | > 100 µM | > 100 µM | > 100 µM | > 100 µM | > 100 µM | > 100 µM | > 100 µM | > 100 µM | > 100 µM | 89.4 µM |  |  |  |  | 
Cc1ccc2c(n1)NC(=O)C(Cc1ccccc1)(N=[N+]=[N-])C2=O (stereo not given) | > 100 µM | > 100 µM | > 100 µM | > 100 µM | > 100 µM | > 100 µM | > 100 µM | > 100 µM | > 100 µM |  | > 100 µM | > 100 µM |  |  | > 100 µM | > 100 µM | > 100 µM | > 100 µM | > 100 µM | > 100 µM
COc1c2cc([N+](=O)[O-])cc1CN(C(=O)C(F)(F)F)CCOCCN(C(=O)C(F)(F)F)C2 | > 100 µM | > 100 µM |  | > 100 µM | > 100 µM | > 100 µM | > 100 µM | > 100 µM | > 100 µM | > 100 µM | > 100 µM | > 100 µM | > 100 µM | > 100 µM | > 100 µM | > 100 µM | > 100 µM | > 100 µM | > 100 µM | > 100 µM
C=C1C2CC3CCC2C(OC(=O)c2ccccc2C(=O)O)C13 (stereo not given) | > 100 µM | > 100 µM | > 100 µM | > 100 µM | > 100 µM | > 100 µM | > 100 µM | > 100 µM | > 100 µM | > 100 µM | > 100 µM | > 100 µM | > 100 µM | > 100 µM | > 100 µM |  | > 100 µM | > 100 µM | > 100 µM | > 100 µM
O=C1C[C@@H]2[C@@H](c3ccccc3)[C@@H]3C(=O)c4ccccc4NC(=O)[C@H]3[C@]2(O)c2ccccc2N1 | > 100 µM | > 100 µM |  | > 100 µM |  | > 100 µM | > 100 µM | > 100 µM | > 100 µM |  | > 100 µM | > 100 µM | > 100 µM | > 100 µM |  |  | > 100 µM |  | > 100 µM | > 100 µM
CC(C)=CCC/C(C)=C/Cc1c(O)c(C)cc2c1[nH]c1cc(O)ccc12 | > 25 µM | > 25 µM | > 25 µM | > 25 µM | > 25 µM | > 25 µM | > 25 µM | > 25 µM | > 25 µM |  | > 25 µM | > 25 µM |  | > 25 µM |  |  | > 25 µM |  | > 25 µM | > 25 µM
C=CC(=O)Nc1ccccc1CC(c1c[nH]c2ccccc12)c1c[nH]c2ccccc12 | 36.6 µM | 30.6 µM | 33.4 µM | 39.2 µM | 36.6 µM | 30.3 µM | 33.6 µM |  | 30.9 µM |  | 40.1 µM | 31.7 µM | 51 µM | 33.4 µM |  |  | 37.5 µM | 37.7 µM | 38.7 µM | 48.2 µM
